Earlier results in patent US6750247B2, “Sponge-derived terpenoids and methods of use” (Galileo Laboratories, Inc., priority 2001, dated 2004).

Biological target: T1, lipoxygenase (Homo sapiens, UniProt P09917)
T1 sequence (P09917 1-674): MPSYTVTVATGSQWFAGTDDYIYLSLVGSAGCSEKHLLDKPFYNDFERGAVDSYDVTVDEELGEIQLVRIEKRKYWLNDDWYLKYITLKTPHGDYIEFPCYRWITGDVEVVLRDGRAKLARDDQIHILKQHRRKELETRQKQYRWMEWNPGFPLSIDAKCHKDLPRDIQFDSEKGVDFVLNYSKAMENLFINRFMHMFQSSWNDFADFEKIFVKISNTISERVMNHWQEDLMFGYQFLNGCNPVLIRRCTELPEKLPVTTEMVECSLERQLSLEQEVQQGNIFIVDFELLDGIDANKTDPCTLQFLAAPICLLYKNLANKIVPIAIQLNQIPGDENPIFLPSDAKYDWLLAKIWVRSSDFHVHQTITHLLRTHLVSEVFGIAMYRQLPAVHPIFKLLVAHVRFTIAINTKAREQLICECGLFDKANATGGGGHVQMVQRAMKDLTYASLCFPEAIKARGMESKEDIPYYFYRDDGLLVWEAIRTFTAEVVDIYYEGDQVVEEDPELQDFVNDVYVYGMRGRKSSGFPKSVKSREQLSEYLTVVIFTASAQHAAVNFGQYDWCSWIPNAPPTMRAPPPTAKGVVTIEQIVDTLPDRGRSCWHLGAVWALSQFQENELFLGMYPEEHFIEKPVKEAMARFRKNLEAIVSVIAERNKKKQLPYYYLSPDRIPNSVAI
Settings: Cabre et al., Inflamm. Res. 1996; cited from earlier work

## CC1=C(CC/C(C)=C/CCC2=CC[C@H](C3=CC(=O)O[C@H]3O)O[C@H]2O)C(C)(C)CCC1 [manoalide]
  lipoxygenase inhibitory properties: no lipoxygenase inhibitory properties
